Assay results reported in patent US10280165B2, “Pyridopyrimidinones and methods of use thereof” (Genentech, Inc., priority 2015, dated 2019).

Target: HEK cells stably transfected with tetracycline inducible hNR1 and hNR2A (Homo sapiens (Human), UniProt Q05586+Q12879)
Test: Assay 1: Cell-Based Assay (cytosolic calcium, positive allosteric modulation)
Settings: for Emax: HEK293, scaled relative to 100 μM L-glutamate maximal response (100%) and 0 μM L-glutamate (0%), with 30 μM glycine and 300 nM L-glutamate, read-out: Max %; for EC50: with 30 μM glycine and 300 nM L-glutamate (EC30), given for compounds reaching maximal response plateaus
Description: Assay 1: Cell-Based Assay
HEK cells stably transfected with tetracycline inducible hNR1 and hNR2A were seeded into clear bottom 384 well poly-D-lysine coated plates (2.5×10^4 cells per well) in Minimum Essential Media (MEM; without L-) including 7.5 μg mL doxycycline and 500 μM (+)-ketamine. The cells were incubated at 37° C. in 5% CO2 for 24 h. For measurement of changes in cytosolic calcium, the seeding media was removed and the cells incubated at 37° C. for 60 min with 1× Becton Dickinson Calcium Assay Kit reagent in Hanks Balanced Salt Solution (HBSS; w/o magnesium, including 1.8 mM calcium, 0.65 mg ml^−1 probenecid and 10 μM (+)-ketamine, pH 7.15) then allowed to equilibrate to rt for 30 min. Concentration-effect curves to Positive Allosteric Modulators (PAMs) were constructed by adding different concentrations (with 30 μM glycine and 300 nM L-glutamate (EC30)) to different wells in HBSS. Compounds were added after a 10 second baseline read and maximum level of relative fluorescence units (RFU) was measured over a 5 min period. Responses were scaled relative to 100 μM L-glutamate maximal response (100%) and 0 μM L-glutamate (0%). EC50 values are provided for compounds reaching maximal response plateaus, and the max % (EC50 (--)) only if no plateau was reached.
A four-parameter Hill equation was fitted to individual concentration-effect curves:
[formula] in which Y, S0, Sinf, AC50, n and c were effect, lower-asymptote, upper-asymptote, mid-point location, slope parameter, and concentration respectively.

HEK cells stably transfected with tetracycline inducible hNR1 and hNR2A, sequence (Q12879 23-1464, other chains not shown): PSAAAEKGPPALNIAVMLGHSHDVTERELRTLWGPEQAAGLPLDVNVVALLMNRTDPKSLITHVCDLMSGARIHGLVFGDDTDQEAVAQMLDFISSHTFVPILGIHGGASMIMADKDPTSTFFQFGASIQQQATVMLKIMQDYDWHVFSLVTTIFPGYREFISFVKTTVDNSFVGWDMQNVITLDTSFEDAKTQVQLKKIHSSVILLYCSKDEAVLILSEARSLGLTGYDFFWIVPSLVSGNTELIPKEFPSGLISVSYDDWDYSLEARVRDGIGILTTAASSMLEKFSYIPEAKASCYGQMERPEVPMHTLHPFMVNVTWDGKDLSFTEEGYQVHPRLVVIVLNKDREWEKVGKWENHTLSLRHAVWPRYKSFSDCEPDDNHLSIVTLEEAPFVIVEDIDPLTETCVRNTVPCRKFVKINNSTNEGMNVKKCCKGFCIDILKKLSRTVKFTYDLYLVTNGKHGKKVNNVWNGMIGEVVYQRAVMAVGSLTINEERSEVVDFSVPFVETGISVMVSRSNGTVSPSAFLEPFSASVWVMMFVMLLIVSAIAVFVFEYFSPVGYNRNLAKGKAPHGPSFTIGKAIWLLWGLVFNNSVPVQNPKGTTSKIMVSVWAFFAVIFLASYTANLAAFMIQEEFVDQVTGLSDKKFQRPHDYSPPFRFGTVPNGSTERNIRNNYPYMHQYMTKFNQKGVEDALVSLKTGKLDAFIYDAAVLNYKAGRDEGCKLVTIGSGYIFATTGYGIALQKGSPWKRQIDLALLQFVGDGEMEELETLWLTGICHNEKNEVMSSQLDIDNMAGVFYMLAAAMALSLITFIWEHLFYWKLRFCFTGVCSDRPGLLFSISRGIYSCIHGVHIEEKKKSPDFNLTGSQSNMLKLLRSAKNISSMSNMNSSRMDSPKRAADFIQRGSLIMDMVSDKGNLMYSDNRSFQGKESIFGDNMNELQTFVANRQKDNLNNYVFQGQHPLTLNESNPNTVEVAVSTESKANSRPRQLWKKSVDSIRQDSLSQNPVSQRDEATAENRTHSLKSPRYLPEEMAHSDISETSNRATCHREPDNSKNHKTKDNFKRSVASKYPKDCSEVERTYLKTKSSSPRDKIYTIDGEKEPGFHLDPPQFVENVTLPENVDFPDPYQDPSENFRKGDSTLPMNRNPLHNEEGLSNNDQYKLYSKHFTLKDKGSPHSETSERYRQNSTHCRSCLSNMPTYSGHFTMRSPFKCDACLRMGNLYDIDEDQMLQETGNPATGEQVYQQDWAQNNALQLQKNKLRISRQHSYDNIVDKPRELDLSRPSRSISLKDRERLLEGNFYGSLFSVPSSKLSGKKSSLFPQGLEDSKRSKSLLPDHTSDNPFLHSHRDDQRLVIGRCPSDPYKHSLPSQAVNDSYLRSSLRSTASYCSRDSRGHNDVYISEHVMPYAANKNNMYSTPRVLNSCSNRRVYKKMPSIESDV

Structure (SMILES)	Emax [%]	EC50 [µM]
Cc1ccc2nc(CN(C)c3ccccc3)cc(=O)n2c1 [Compound 2, 7-methyl-2-[(N-methylanilino)methyl]pyrido[1,2-a]pyrimidin-4-one]	75	
CCN(Cc1cc(=O)n2cc(C)ccc2n1)c1ccccc1 [Compound 3, 2-[(N-ethylanilino)methyl]-7-methyl-pyrido[1,2-a]pyrimidin-4-one]	122	11.1
CCN(Cc1cc(=O)n2cc(C)ccc2n1)c1ccc(F)cc1 [Compound 4, 2-[(N-ethyl-4-fluoro-anilino)methyl]-7-methyl-pyrido[1,2-a]pyrimidin-4-one]	134	5.2
CCc1cccc2nc(CN(CC)c3ccc(F)cc3)cc(=O)n12 [Compound 5, 6-ethyl-2-[(N-ethyl-4-fluoro-anilino)methyl]pyrido[1,2-a]pyrimidin-4-one]	134	6.4
CCc1cccc2nc(CN(CC)c3ccccc3)cc(=O)n12 [Compound 6, 6-ethyl-2-[(N-ethylanilino)methyl]pyrido[1,2-a]pyrimidin-4-one]	138	11.5
CCN(Cc1cc(=O)n2c(C)cccc2n1)c1ccc(F)cc1 [Compound 7, 2-[(N-ethyl-4-fluoro-anilino)methyl]-6-methyl-pyrido[1,2-a]pyrimidin-4-one]	111	13.6
CCN(Cc1cc(=O)n2c(OC)cccc2n1)c1ccc(F)cc1 [Compound 8, 2-[(N-ethyl-fluoro-anilino)methyl]-6-methoxy-pyrido[1,2-a]pyrimidin-4-one]	117	
CCOc1cccc2nc(CN(CC)c3ccc(F)cc3)cc(=O)n12 [Compound 9, 6-ethoxy-2-[(N-ethyl-4-fluoro-anilino)methyl]pyrido[1,2-a]pyrimidin-4-one]	120	5
CCN(Cc1cc(=O)n2c(OC)c(C)ccc2n1)c1ccc(F)cc1 [Compound 10, 2-[(N-ethyl-4-fluoro-anilino)methyl]-6-methoxy-7-methyl-pyrido[1,2-a]pyrimidin-4-one]	51	
CCOc1c(C)ccc2nc(CN(CC)c3ccc(F)cc3)cc(=O)n12 [Compound 11, 6-ethoxy-2-[(N-ethyl-4-fluoro-anilino)methyl]-7-methyl-pyrido[1,2-a]pyrimidin-4-one]	53	
CCN(Cc1cc(=O)n2c(-c3cncnc3)cccc2n1)c1ccc(F)cc1 [Compound 12, 2-[(N-ethyl-4-fluoro-anilino)methyl]-6-pyrimidin-5-yl-pyrido[1,2-a]pyrimidin-4-one]	161	6.4
CCN(Cc1cc(=O)n2c(-c3ccco3)cccc2n1)c1ccc(F)cc1 [Compound 13, 2-[(N-ethyl-4-fluoro-anilino)methyl]-6-(2-furyl)pyrido[1,2-a]pyrimidin-4-one]	172	0.371
CCN(Cc1cc(=O)n2c(C#N)cccc2n1)c1ccc(F)cc1 [Compound 14, 2-[(N-ethyl-4-fluoro-anilino)methyl]-4-oxo-pyrido[1,2-a]pyrimidine-6-carbonitrile]	163	5.8
CCN(Cc1cc(=O)n2c(Br)cccc2n1)c1ccc(F)cc1 [Compound 15, 6-bromo-2-[(N-ethyl-4-fluoro-anilino)methyl]pyrido[1,2-a]pyrimidin-4-one]	159	6.2
CCNC(=O)c1c(C)ccc2nc(COc3ccc(F)cc3)cc(=O)n12 [Compound 16, N-ethyl-2-[(4-fluorophenoxy)methyl]-7-methyl-4-oxo-pyrido[1,2-a]pyrimidine-6-carboxamide]	159	3.6
CCNC(=O)c1c(C)ccc2nc(Cn3nc(C(F)(F)F)cc3C3CC3)cc(=O)n12 [Compound 17, 2-[[5-cyclopropyl-3-(trifluoromethyl)pyrazol-1-yl]methyl]-N-ethyl-7-methyl-4-oxo-pyrido[1,2-a]pyrimidine-6-carboxamide]	148	4
CCNC(=O)c1c(C)ccc2nc(Cn3nc(C4CC4)cc3C(F)(F)F)cc(=O)n12 [Compound 18, 2-[[3-cyclopropyl-5-(trifluoromethyl)pyrazol-1-yl]methyl]-N-ethyl-7-methyl-4-oxo-pyrido[1,2-a]pyrimidine-6-carboxamide]	122	16.2
CCNC(=O)c1c(C)ccc2nc(Cc3cccc(C#N)c3F)cc(=O)n12 [Compound 19, 2-[(3-cyano-2-fluoro-phenyl)methyl]-N-ethyl-7-methyl-4-oxo-pyrido[1,2-a]pyrimidine-6-carboxamide]	65	
CCNC(=O)c1cccc2nc(Cn3nc(C(F)(F)F)cc3C3CC3)cc(=O)n12 [Compound 20, 2-[[5-cyclopropyl-3-(trifluoromethyl)pyrazol-1-yl]methyl]-N-ethyl-4-oxo-pyrido[1,2-a]pyrimidine-6-carboxamide]	116	7.4
CCNC(=O)c1cccc2nc(Cc3cccc(C#N)c3F)cc(=O)n12 [Compound 21, 2-[(3-cyano-2-fluoro-phenyl)methyl]-N-ethyl-4-oxo-pyrido[1,2-a]pyrimidine-6-carboxamide]	43	

The remaining lines, values ahead:

Emax [%]	EC50 [µM]	Structure (SMILES)
69		CNC(=O)c1c(C)ccc2nc(Cc3cccc(C(F)(F)F)c3F)cc(=O)n12 [Compound 22, 2-[[2-fluoro-3-(trifluoromethyl)phenyl]methyl]-N,7-dimethyl-4-oxo-pyrido[1,2-a]pyrimidine-6-carboxamide]
59		CNC(=O)c1c(C)ccc2nc(Cc3cccc(Cl)c3F)cc(=O)n12 [Compound 23, 2-[(3-chloro-2-fluoro-phenyl)methyl]-N,7-dimethyl-4-oxo-pyrido[1,2-a]pyrimidine-6-carboxamide]
67		CNC(=O)c1c(C)ccc2nc(Cc3cccc(C4CC4)c3F)cc(=O)n12 [Compound 24, 2-[(3-cyclopropyl-2-fluoro-phenyl)methyl]-N,7-dimethyl-4-oxo-pyrido[1,2-a]pyrimidine-6-carboxamide]
51		CNC(=O)c1c(C)ccc2nc(Cc3cccc(C#N)c3F)cc(=O)n12 [Compound 25, 2-[(3-cyano-2-fluoro-phenyl)methyl]-N,7-dimethyl-4-oxo-pyrido[1,2-a]pyrimidine-6-carboxamide]
34		CNC(=O)c1c(C)ccc2nc(Cc3cccc(C#N)c3F)c(F)c(=O)n12 [Compound 26, 2-[(3-cyano-2-fluoro-phenyl)methyl]-3-fluoro-N,7-dimethyl-4-oxo-pyrido[1,2-a]pyrimidine-6-carboxamide]
162	2.7	CCN(Cc1cc(=O)n2c(C(=O)NC)c(C)ccc2n1)c1ccc(F)cc1 [Compound 27, 2-[(N-ethyl-4-fluoro-anilino)methyl]-N,7-dimethyl-4-oxo-pyrido[1,2-a]pyrimidine-6-carboxamide]
60		CCNC(=O)c1c(C)ccc2nc(Cn3ccc(C(F)(F)F)n3)cc(=O)n12 [Compound 28, N-ethyl-7-methyl-4-oxo-2-[[3-(trifluoromethyl)pyrazol-1-yl)methyl]pyrido[1,2-a]pyrimidine-6-carboxamide]
147	5.9	CNC(=O)c1c(C)ccc2nc(Cn3nc(C(F)(F)F)cc3C3CC3)cc(=O)n12 [Compound 29, 2-[[5-cyclopropyl-3-(trifluoromethyl)pyrazol-1-yl]methyl]-N,7-dimethyl-4-oxo-pyrido[1,2-a]pyrimidine-6-carboxamide]
101		CNC(=O)c1c(C)ccc2nc(Cn3nc(C4CC4)cc3C(F)(F)F)cc(=O)n12 [Compound 30, 2-[[3-cyclopropyl-5-(trifluoromethyl)pyrazol-1-yl]methyl]-N,7-dimethyl-4-oxo-pyrido[1,2-a]pyrimidine-6-carboxamide]
48		CNC(=O)c1c(C)ccc2nc(Cc3cccc(Cl)c3F)c(F)c(=O)n12 [Compound 31, 2-[(3-chloro-2-fluoro-phenyl)methyl]-3-fluoro-N,7-dimethyl-4-oxo-pyrido[1,2-a]pyrimidine-6-carboxamide]
136		CCNC(=O)c1cc(C)cc2nc(Cn3nc(C(F)(F)F)cc3C3CC3)cc(=O)n12 [Compound 32]
198		Cc1ccc2nc(Cn3nc(C(F)(F)F)cc3C3CC3)cc(=O)n2c1C(=O)NCC(F)(F)F [Compound 33, 2-[[5-cyclopropyl-3-(trifluoromethyl)pyrazol-1-yl]methyl]-7-methyl-4-oxo-N-(2,2,2-trifluoroethyl)pyrido[1,2-a]pyrimidine-6-carboxamide]
99	25.5	Cc1ccc2nc(Cn3nc(C(F)(F)F)cc3Cl)cc(=O)n2c1[C@H]1C[C@@H]1C#N [Compound 34, (1S,2S)-2-[2-[[5-chloro-3-(trifluoromethyl)pyrazol-1-yl]methyl]-7-methyl-4-oxo-pyrido[1,2-a]pyrimidin-6-yl]cyclopropanecarbonitrile]
132	0.077	Cc1ccc2nc(Cn3nc(C(F)(F)F)cc3Cl)cc(=O)n2c1[C@@H]1C[C@H]1C#N [Compound 35, (1R,2R)-2-[2-[[5-chloro-3-(trifluoromethyl)pyrazol-1-yl]methyl]-7-methyl-4-oxo-pyrido[1,2-a]pyrimidin-6-yl]cyclopropanecarbonitrile]
